Where two headings read alike, the source gives them in different places.

The test system of one test is A204. Kind of test: CCK-8 cell proliferation assay. The format is cell-based. To be noted: Homo sapiens, read-out: antiproliferative IC50, A204. As to the method: (§1) The base medium for MDA‐MB‐453 cell line is DMEM medium (CORNING, USA). All other cell lines were cultured in RPMI‐1640 medium supplemented with 10% FBS, 100 U/ml of penicillin, and […] of streptomycin in 5% CO2 at 37℃. The cells in the logarithmic growth phase were used for the experiments.
(§2) Cells were seeded in 96‐well plate in complete medium (1000–6000 cells/well) and cultured for overnight. Then the cells were exposed to gradient concentrations (0.0005–10 μM) of compounds. Cell proliferation was analyzed by Cell Counting Kit 8 (CK04, Dojindo Laboratories, Japan) after co‐incubation for a further 72 h. IC50 values were calculated by fitting of concentration–response curves using GraphPad Prism 8.01 software. Each assay was repeated at least three times.
(§3) The expression and activation levels of FGFR1–4 in these cells were determined via western blot experiments (Figure S1).

Another test relates to A549. Kind of test: CCK-8 cell proliferation assay. The settings on record: Homo sapiens, A549, 72 h, read-out: antiproliferative IC50, A549. It counts as cell-based. As for the experimental part:
as §1, §2, §3
(In general: Tetrazolium dyes change colour on reduction, which living cells bring about.)

The subject of a further test is H1581. Kind of test: CCK-8 cell proliferation assay. The settings on record: Homo sapiens, read-out: antiproliferative IC50, H1581. It counts as cell-based. As to the method: as §1, §2, §3
The next test relates to KATOIII. As to the kind of experiment: CCK-8 cell proliferation assay. The format is cell-based. The settings on record: Homo sapiens, KATO III, read-out: antiproliferative IC50, KATOIII. As to the method:
as §1, §2, §3

For a further test, the system named is MDA‐MB‐231. As to the kind of experiment: CCK-8 cell proliferation assay. The format is cell-based. To be noted: Homo sapiens, MDA-MB-231, 72 h. As to the method: as §1, §2, §3
The next test relates to MDA‐MB‐453. Kind of test: CCK-8 cell proliferation assay. The format is cell-based. The settings on record: Homo sapiens, read-out: antiproliferative IC50, MDA‐MB‐453. As for the experimental part:
as §1, §2, §3

The subject of another test is MKN‐1. As to the kind of experiment: CCK-8 cell proliferation assay. It counts as cell-based. The settings on record: Homo sapiens, read-out: antiproliferative IC50, MKN‐1. As to the method:
as §1, §2, §3

A further test has as its system NCI‐H716. Kind of test: CCK-8 cell proliferation assay. The format is cell-based. To be noted: Homo sapiens, read-out: antiproliferative IC50, NCI‐H716. As to the method:
as §1, §2, §3

For a further test, the system named is RT112. As to the kind of experiment: CCK-8 cell proliferation assay. The format is cell-based. To be noted: Homo sapiens, read-out: antiproliferative IC50, RT112. As for the experimental part: as §1, §2, §3
The test system of the next test is SNU16. As to the kind of experiment: CCK-8 cell proliferation assay. The format is cell-based. The settings on record: Homo sapiens, SNU-16, 72 h, read-out: antiproliferative IC50, SNU16. As for the experimental part:
as §1, §2, §3

Another test deals with Ba/F3‐FGFR1. As to the kind of experiment: CCK-8 proliferation assay in Ba/F3 stable cells. The format is cell-based. To be noted: Mus musculus, BaF3, 72 h, read-out: IC50 (μΜ) Ba/F3‐FGFR1. As to the method: (§4) The Ba/F3 cell lines stably expressing FGFR1, FGFR1‐V561M, FGFR1‐V561F, FGFR1‐K656N, and FGFR1‐K656E were self‐established through electroporation pCDNA3.1‐TEL plasmids using the Amaxa Cell Line Nucleofector Kit V (Lonza, Cologne, Germany). Stable cell lines were selected by G418 (Merck, USA) and then withdrawal of IL‐3 (R&D). […] Parental Ba/F3 cells were maintained in RPMI 1640 supplemented with 10% FBS, 100 U/ml of penicillin, […] of streptomycin, and 10 ng/ml of IL‐3, while all Ba/F3 stable cell lines were cultured in the same medium without IL‐3.
as §2
(§5) There is, however, no commercially available FGFR1 mutant kinase to validate this. Therefore, we constructed Ba/F3 model cells stably expressing FGFR1‐WT, K656E, K656N, V561M, and V561F mutations.

The subject of the next test is Ba/F3‐FGFR1‐K656E. Kind of test: CCK-8 proliferation assay in Ba/F3 stable cells. It counts as cell-based. The settings on record: Mus musculus, BaF3, 72 h, read-out: IC50 (μΜ) Ba/F3‐FGFR1‐K656E. As to the method:
as §4, §2, §5

The subject of a further test is Ba/F3‐FGFR1‐K656N. Kind of test: CCK-8 proliferation assay in Ba/F3 stable cells. It counts as cell-based. To be noted: Mus musculus, BaF3, 72 h, read-out: IC50 (μΜ) Ba/F3‐FGFR1‐K656N. As to the method:
as §4, §2, §5

The subject of test [1] is Ba/F3‐FGFR1‐V561F. As to the kind of experiment: CCK-8 proliferation assay in Ba/F3 stable cells. The format is cell-based. The settings on record: Mus musculus, BaF3, 72 h, read-out: IC50 (μΜ) Ba/F3‐FGFR1‐V561F. As for the experimental part: as §4, §2, §5
The next test has as its system Ba/F3‐FGFR1‐V561M. Kind of test: CCK-8 proliferation assay in Ba/F3 stable cells. It counts as cell-based. As to the method: as §4, §2, §5
The next test relates to Ba/F3(+IL‐3). Kind of test: CCK-8 proliferation assay in parental Ba/F3 cells. The format is cell-based. The settings on record: Mus musculus, read-out: IC50 (μΜ) Ba/F3(+IL‐3). As to the method: as §4, §2, §5
A further test concerns FGFR1‐V561M. The settings on record: no reference given; cited from earlier work.
A further test concerns FGFR1 WT. To be noted: no reference given; cited from earlier work.
Test [2] deals with Ba/F3‐FGFR1‐V561F. As to the kind of experiment: Cell cycle analysis by flow cytometry (propidium iodide). It counts as cell-based. To be noted: 1000 nM. As to the method:
About 6 × 10^5 cells were re‐suspended in 150 μl of BD Cytofix/Cytoperm buffer solution I for 10 min at room temperature. The cell suspensions were added with BD Cytofix/Cytoperm buffer solution II and incubated with another 10 min at room temperature, and then incubated with 200 μl of propidium iodide buffer (0.1 mg/ml) in the dark for 10 min at 4℃. Assays were performed with a Guava easyCyte flow cytometer (Merck, USA).
(A flow cytometer gives signals particle by particle.)

Test [3] has as its system Ba/F3‐FGFR1‐V561F. Kind of test: Apoptosis assay by flow cytometry (Annexin V / 7-AAD). It counts as cell-based. To be noted: 1000 nM. As to the method:
After incubation, cells were collected and washed twice with pre‐cold PBS. About 6 × 10^5 cells were resuspended in 100 μl of 1× BD binding buffer solution (#556454, BD), and then stained with 7‐ADD (#559925, BD) and Annexin V‐PE (#556422, BD) in the dark for 15 min. Finally, 400 μl of 1×BD binding buffer solution were added to stop dyeing. The cells were then measured on a Guava easyCyte flow cytometer (Merck, USA).

For `COCCNc1cc(NC(=O)N2CCCc3cc(CN4CCN(C)CC4=O)c(C=O)nc32)ncc1C#N` [FGF401], the IC50 in the test with A204 (A204, FGFR1 amplification, CCK-8, 72 h) is 8.25 ± 0.708 µM; with A549 (negative control, CCK-8, 72 h), > 10000 nM; with H1581 (NCI-H1581, FGFR1 amplification, CCK-8, 72 h), > 10000 nM; with KATOIII (FGFR2 amplification, CCK-8, 72 h), 9.38 ± 2.86 µM; in the test on MDA‐MB‐231 (read-out: antiproliferative IC50, MDA‐MB‐231, negative control, CCK-8, 72 h) it was > 10000 nM; with MDA‐MB‐453 (MDA-MB-453, FGFR4‐Y367C, CCK-8, 72 h), 62.3 ± 27.7 nM. In addition, the IC50 in the test with MKN‐1 (MKN-1, negative control, CCK-8, 72 h) was > 10000 nM; in the test on NCI‐H716 (NCI-H716, FGFR2 amplification, CCK-8, 72 h), > 10000 nM; with RT112 (RT-112, FGFR3‐TACC3, CCK-8, 72 h) it was > 10000 nM.

Consider `Cc1ccc(C(=O)Nc2ccc(CN3CCN(C)CC3)c(C(F)(F)F)c2)cc1C#Cc1cnc2cccnn12` [Ponatinib], for which the IC50 with A204 (A204, 72 h) was determined as 0.169 ± 0.134 µM; in the test with A549, 990 ± 54.1 nM; with H1581 (NCI-H1581, 72 h), 128 ± 19.1 nM; with KATOIII (72 h), 0.0187 ± 0.0008 µM; in the test with MDA‐MB‐231 (read-out: antiproliferative IC50, MDA‐MB‐231), 701 ± 69.9 nM; with MDA‐MB‐453 (MDA-MB-453, 72 h), 707 ± 26.4 nM. Further, the IC50 in the test on MKN‐1 (MKN-1, 72 h) was 758 ± 72 nM; in the test on NCI‐H716 (NCI-H716, 72 h) it was 26.4 ± 2.9 nM; in the test on RT112 (RT-112, 72 h), 216 ± 8.2 nM; in the test with SNU16, 78.2 ± 10.2 nM; with Ba/F3‐FGFR1, 33 ± 2.8 nM; with Ba/F3‐FGFR1‐K656E, 88 ± 28 nM. Further, the IC50 in the test on Ba/F3‐FGFR1‐K656N stood at 47 ± 8.8 nM; with Ba/F3‐FGFR1‐V561F [1] it was 56 ± 9 nM; with Ba/F3‐FGFR1‐V561M (Mus musculus, BaF3, 72 h, read-out: IC50 (μΜ) Ba/F3‐FGFR1‐V561M) it was 400 ± 11 nM; in the test with Ba/F3(+IL‐3) (BaF3, 72 h) it was 2.38 ± 0.42 µM. Further, in the test on Ba/F3‐FGFR1‐V561M, the “fold increase of IC50 value, Ba/F3‐FGFR1‐V561M compared to Ba/F3‐FGFR1‐WT” value turned out to be 10 fold. Further, the “reported FGFR1‐V561M kinase inhibitory activity” value in the test with FGFR1‐V561M is 18.6. The “reported FGFR1 WT kinase inhibitory activity” value in the test with FGFR1 WT was 1.6.

Turning to `C=CC(=O)N1CC[C@H](n2nc(C#Cc3cc(OC)cc(OC)c3)c3c(N)ncnc32)C1` [TAS120], the “effect on cell cycle” value in the test with Ba/F3‐FGFR1‐V561F [2] was “weak effect”. Besides, the effect on apoptosis result with Ba/F3‐FGFR1‐V561F [3] is on record as “weak effect”.

As to `CCN1C(=O)N(c2c(F)c(OC)cc(OC)c2F)Cc2cnc3[nH]c(CN4CCOCC4)cc3c21` [Pemigatinib], the IC50 in the test on Ba/F3(+IL‐3) (BaF3, parental cells with IL-3, CCK-8, 72 h) is 8.98 ± 1.4 µM.
